According to patent US20240199546A1, “INHIBITORS OF SOLUTE CARRIER FAMILY 6A MEMBER 19 (SLC6A19) AND METHODS OF USE THEREOF” (Maze Therapeutics, Inc., priority 2022, published 2024):

Experiments:
human SLC6A19 and TMEM27 [1] = biological target: T1, human SLC6A19 and TMEM27 (Homo sapiens, UniProt Q695T7); assay: 13C6,15N-isoleucine uptake in CHO cells with doxycycline-inducible expression of human SLC6A19 and TMEM27, RapidFire mass spectrometry (Example B-2); assay type: cell-based; conditions: read-out: SLC6A19_RapidFire Uptake Assay IC50
T1 construct: expressed in transfected cells
T1 sequence (Q695T7 1-634): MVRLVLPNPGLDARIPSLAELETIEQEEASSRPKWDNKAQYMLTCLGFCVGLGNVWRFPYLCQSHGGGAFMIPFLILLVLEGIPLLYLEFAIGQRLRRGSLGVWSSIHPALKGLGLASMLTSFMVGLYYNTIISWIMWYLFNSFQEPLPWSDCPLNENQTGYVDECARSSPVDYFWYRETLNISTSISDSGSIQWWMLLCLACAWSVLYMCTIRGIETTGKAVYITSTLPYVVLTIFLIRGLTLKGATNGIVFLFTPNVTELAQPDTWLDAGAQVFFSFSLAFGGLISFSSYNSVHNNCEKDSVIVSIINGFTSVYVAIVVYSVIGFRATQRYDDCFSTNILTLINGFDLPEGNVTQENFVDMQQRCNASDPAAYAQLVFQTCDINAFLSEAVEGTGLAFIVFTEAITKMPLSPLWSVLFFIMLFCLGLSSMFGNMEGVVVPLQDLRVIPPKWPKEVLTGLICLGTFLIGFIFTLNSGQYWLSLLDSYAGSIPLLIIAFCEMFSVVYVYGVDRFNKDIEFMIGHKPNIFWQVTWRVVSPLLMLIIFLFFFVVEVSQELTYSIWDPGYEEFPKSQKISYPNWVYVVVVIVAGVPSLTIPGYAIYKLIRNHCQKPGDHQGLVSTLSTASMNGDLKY
T1 sequence (Q9HBJ8 15-222 partner): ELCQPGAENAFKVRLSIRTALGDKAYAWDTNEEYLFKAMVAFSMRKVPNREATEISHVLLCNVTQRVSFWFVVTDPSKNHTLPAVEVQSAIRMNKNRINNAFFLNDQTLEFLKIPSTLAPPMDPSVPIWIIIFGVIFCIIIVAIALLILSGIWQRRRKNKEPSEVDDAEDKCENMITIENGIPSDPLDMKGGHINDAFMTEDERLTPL
Method in brief: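 CHO cells induced overnight with doxycycline to express human SLC6A19 plus TMEM27; 20 min preincubation with compound (10-point 2-fold series, duplicate) at 37 °C in HEPES buffer pH 7.2, then 20 min with 13C6,15N-isoleucine. Intracellular label quantified by RapidFire MS against 13C-leucine standard; positive control defined 100% inhibition.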

human SLC6A19 and TMEM27 [2] = biological target: T1, human SLC6A19 and TMEM27; assay: Radiolabelled (3H) leucine uptake in CHO cells with doxycycline-inducible expression of human SLC6A19 and TMEM27 (Example B-1); assay type: cell-based; conditions: CHO cells with doxycycline-inducible expression of human SLC6A19 and TMEM27, read-out: SLC6A19_Radioligand Uptake Assay IC50
Method in brief: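 CHO cells were induced with doxycycline for 18 h at 37 °C, washed in HBSS, then exposed to compounds for 1 h: 8-point, 3-fold dilutions in duplicate, 0.5% DMSO final. Uptake measured by scintillation counting after 2 h shaking. Activity normalized with positive control as 0% and DMSO as 100%.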

Row | Structure (SMILES) | IC50 (human SLC6A19 and TMEM27 [1]) | IC50 (human SLC6A19 and TMEM27 [2])
1 | O=C(NCc1cc2cc(C(F)(F)F)c(OCc3cscn3)cc2[nH]1)N1CCC1 [Compound 478, N-((6-(thiazol-4-ylmethoxy)-5-(trifluoromethyl)-1H-indol-2-yl)methyl)azetidine-1-carboxamide] | 172 nM | 416 nM
2 | CC1(C(=O)NCc2cc3cc(Cl)c(OCc4cc(C(F)(F)F)on4)cc3[nH]2)CC1 [Compound 352, N-((5-chloro-6-((5-(trifluoromethyl)isoxazol-3-yl)methoxy)-1H-indol-2-yl)methyl)-1-methylcyclopropane-1-carboxamide] | 469 nM | 67.5 nM
3 | CC1(C(=O)NCc2cc3c(F)cc(OCc4ccon4)cc3[nH]2)CC1 [Compound 27, N-((4-fluoro-6-(isoxazol-3-ylmethoxy)-1H-indol-2-yl)methyl)-1-methylcyclopropane-1-carboxamide] | 92 nM | 84 nM
4 | CC1(C(=O)NCc2cc3cc(CC(F)(F)F)c(OCc4cscn4)cc3[nH]2)CC1 [Compound 648, 1-methyl-N-((6-(thiazol-4-ylmethoxy)-5-(2,2,2-trifluoroethyl)-1H-indol-2-yl)methyl)cyclopropane-1-carboxamide] | 344 nM | 785 nM
5 | CC1(C(=O)NCc2cc3ccc(OCc4c[nH]nn4)cc3[nH]2)CC1 [Compound 194, N-((6-((1H-1,2,3-triazol-4-yl)methoxy)-1H-indol-2-yl)methyl)-1-methylcyclopropane-1-carboxamide] | 4940 nM | 6780 nM
6 | CC1(C(=O)NCc2cc3cc(C(F)(F)F)c(OCc4cscn4)cc3[nH]2)CC1 [Compound 60, 1-methyl-N-((6-(thiazol-4-ylmethoxy)-5-(trifluoromethyl)-1H-indol-2-yl)methyl)cyclopropane-1-carboxamide] | 71 nM | 254 nM
7 | CC1(C(=O)NCc2cc3cc(Cl)c(OCc4c(F)ccnc4Cl)cc3[nH]2)CC1 [Compound 351, N-((5-chloro-6-((2-chloro-4-fluoropyridin-3-yl)methoxy)-1H-indol-2-yl)methyl)-1-methylcyclopropane-1-carboxamide] | 1540 nM | 2470 nM
8 | Cc1cc(COc2cc3[nH]c(CNC(=O)C4(C)CC4)cc3cc2C(F)(F)F)no1 [Compound 58, 1-methyl-N-((6-((5-methylisoxazol-3-yl)methoxy)-5-(trifluoromethyl)-1H-indol-2-yl)methyl)cyclopropanecarboxamide] | 28 nM | 162 nM
9 | CC1(C(=O)NCc2cc3cc(Cl)c(NCc4cscn4)cc3[nH]2)CC1 [Compound 452, N-((5-chloro-6-((thiazol-4-ylmethyl)amino)-1H-indol-2-yl)methyl)-1-methylcyclopropane-1-carboxamide] | 63.6 nM | 145 nM
10 | CCC(=O)NCc1cc2cc(Cl)c(OCc3cccc(F)n3)cc2[nH]1 [Compound 494, N-((5-chloro-6-((6-fluoropyridin-2-yl)methoxy)-1H-indol-2-yl)methyl)propionamide] | 35.7 nM | 148 nM
11 | O=C(NCc1cc2cc(Cl)c(OCc3cscn3)cc2[nH]1)C1CC1 [Compound 147, N-((5-chloro-6-(thiazol-4-ylmethoxy)-1H-indol-2-yl)methyl)cyclopropanecarboxamide] | 33 nM | 67 nM
12 | CC1(C(=O)NCc2cc3cc(Cl)c(OCc4cncc(F)c4)cc3[nH]2)CC1 [Compound 36, N-((5-chloro-6-((5-fluoropyridin-3-yl)methoxy)-1H-indol-2-yl)methyl)-1-methylcyclopropane-1-carboxamide] | 316 nM | 716 nM
13 | Cc1cc(CCOc2cc3[nH]c(CNC(=O)C4(C)CC4)cc3cc2Cl)no1 [Compound 99, N-((5-chloro-6-(2-(5-methylisoxazol-3-yl)ethoxy)-1H-indol-2-yl)methyl)-1-methylcyclopropane-1-carboxamide] | 81 nM | 158 nM
14 | CC1CN(C(=O)NCc2cc3cc(Cl)c(OCc4ccon4)cc3[nH]2)C1 [Compound 390, N-((5-chloro-6-(isoxazol-3-ylmethoxy)-1H-indol-2-yl)methyl)-3-methylazetidine-1-carboxamide] | 402 nM | 340 nM
15 | CCC(=O)NCc1cc2cc(Cl)c(OCc3cscn3)cc2[nH]1 [Compound 146, N-((5-chloro-6-(thiazol-4-ylmethoxy)-1H-indol-2-yl)methyl)propionamide] | 36 nM | 60 nM
16 | CC1(C(=O)NCc2cc3cc(Cl)c(OCc4ccsc4Cl)cc3[nH]2)CC1 [Compound 321, N-((5-chloro-6-((2-chlorothiophen-3-yl)methoxy)-1H-indol-2-yl)methyl)-1-methylcyclopropane-1-carboxamide] | 379 nM | 891 nM
17 | CC1(C(=O)NCc2cc3cc(Cl)c(OCc4cn5ccccc5n4)cc3[nH]2)CC1 [Compound 632, N-((5-chloro-6-(imidazo[1,2-a]pyridin-2-ylmethoxy)-1H-indol-2-yl)methyl)-1-methylcyclopropane-1-carboxamide] | > 2050 nM | 1470 nM
18 | CC(=O)NCc1cc2cc(C)c(OCc3cscn3)cc2[nH]1 [Compound 234, N-((5-methyl-6-(thiazol-4-ylmethoxy)-1H-indol-2-yl)methyl)acetamide] | 455 nM | 360 nM
19 | CC1CCCN1C(=O)NCc1cc2cc(F)c(OCc3ccon3)cc2[nH]1 (stereo not shown) [Compound 90, N-((5-fluoro-6-(isoxazol-3-ylmethoxy)-1H-indol-2-yl)methyl)-2-methylpyrrolidine-1-carboxamide] | 1200 nM | 870 nM

Results, then the compound that gave them:

Row | IC50 (human SLC6A19 and TMEM27 [1]) | IC50 (human SLC6A19 and TMEM27 [2]) | Structure (SMILES)
20 | 1500 nM | 566 nM | Cn1ncc(COc2cc3[nH]c(CNC(=O)C4CC4)cc3cc2F)n1 [Compound 433, N-((5-fluoro-6-((2-methyl-2H-1,2,3-triazol-4-yl)methoxy)-1H-indol-2-yl)methyl)cyclopropanecarboxamide]
21 | 43 nM | 73 nM | CC(C)C(=O)NCc1cc2cc(Cl)c(OCc3cscn3)cc2[nH]1 [Compound 145, N-((5-chloro-6-(thiazol-4-ylmethoxy)-1H-indol-2-yl)methyl)isobutyramide]
22 | 257 nM | 195 nM | CC(C)C(=O)NCc1cc2cc(Cl)c(OCc3cocn3)cc2[nH]1 [Compound 500, N-((5-chloro-6-(oxazol-4-ylmethoxy)-1H-indol-2-yl)methyl)isobutyramide]
23 | 103 nM | 136 nM | CC(C)C(=O)NCc1cc2cc(Cl)c(OCc3ccon3)cc2[nH]1 [Compound 132, N-((5-chloro-6-(isoxazol-3-ylmethoxy)-1H-indol-2-yl)methyl)isobutyramide]
24 | 3480 nM | 1550 nM | CC(=O)NCc1cc2cc(F)c(OCc3ccno3)cc2[nH]1 [Compound 220, N-((5-fluoro-6-(isoxazol-5-ylmethoxy)-1H-indol-2-yl)methyl)acetamide]
25 | 498 nM | 478 nM | Cc1nc(COc2cc3[nH]c(CNC(=O)N4CCC4)cc3cc2Cl)co1 [Compound 408, N-((5-chloro-6-((2-methyloxazol-4-yl)methoxy)-1H-indol-2-yl)methyl)azetidine-1-carboxamide]
26 | 1760 nM | 954 nM | Cc1nc(COc2cc3[nH]c(CNC(=O)C(C)C)cc3cc2F)co1 [Compound 551, N-((5-fluoro-6-((2-methyloxazol-4-yl)methoxy)-1H-indol-2-yl)methyl)isobutyramide]
27 | 434 nM | 413 nM | CC1CN(C(=O)NCc2cc3cc(F)c(OCc4cscn4)cc3[nH]2)C1 [Compound 357, N-((5-fluoro-6-(thiazol-4-ylmethoxy)-1H-indol-2-yl)methyl)-3-methylazetidine-1-carboxamide]
28 | 65 nM | 85 nM | Cc1cc(COc2cc3[nH]c(CNC(=O)C(C)C)cc3cc2Cl)no1 [Compound 130, N-((5-chloro-6-((5-methylisoxazol-3-yl)methoxy)-1H-indol-2-yl)methyl)isobutyramide]
29 | 1040 nM | 552 nM | CCC(=O)NCc1cc2cc(F)c(OCc3coc(C)n3)cc2[nH]1 [Compound 550, N-((5-fluoro-6-((2-methyloxazol-4-yl)methoxy)-1H-indol-2-yl)methyl)propionamide]
